Measured values as given in patent publication US20260256870A1, “SKIN COMPOSITION” (Eaderm Co., Ltd., priority 2019, published 2026).

Key:
[1] = tested on: SDS-induced skin roughness; test: Skin roughness induced by 10% SDS in hairless mice (Examples 16, 17); assay type: in vivo, hairless mice (HOS: HR-1)
Source text: Using a skin irritation model induced by a 10% sodium lauryl sulfate (SDS) solution (a test that serves as a standard for chemical-induced skin damage), the present inventors administered a substance that promotes the competitive self-renewal ability of epidermal stem cells (apocynin) and evaluated the effect of the skin roughness-preventing or -ameliorating agent in improving skin roughness. After acclimation of hairless mice (HOS: HR-1) to the experimental environment, the mice were divided into the three groups below, so that the body weight values were nearly uniform. • SDS non-treated group (n=2) • SDS treatment+solvent application group (n=4) • SDS treatment+200 μM apocynin application group (n=4) On the back of hairless mice, a cotton ball soaked in 500 μL of 10% SDS solution (dissolved in 70% ethanol) was applied for 30 min on days 1, 2, 3, and 4. Apocynin was applied to the back every day from the day before the experiment until day 4. For each group of mice on the third day after the start of the experiment, TEWL was measured at specific sites on the back (two sites on the left side and right side symmetrically from the center of the spine) as described above. On the eighth day, the images were taken by PRIMOS-CR (Canfield Scientific, Inc., Integral Corporation), a high-resolution 3D image analysis system. […] Using a skin irritation model induced by 10% sodium lauryl sulfate (SDS) solution, the present inventors administered a substance that promotes the competitive self-renewal ability of epidermal stem cells (ebselen) and evaluated the effect of the skin roughness-preventing or -ameliorating agent in improving skin roughness. […] For each group of mice on the eighth day after the start of the experiment, TEWL was measured at specific sites on the back (two sites on the left side and right side symmetrically from the center of the spine) as described above. […]

UVB-irradiated back skin = test: Barrier function after UVB irradiation (Example 12); assay type: in vivo, Hairless mice HOS: HR-1
Protocol: Hairless mice HOS: HR-1 females (7 weeks old) were acclimatized to the experimental environment and then grouped into the 6 groups below, so that the body weight values were nearly uniform. • No ultraviolet irradiation group (n=2) • Ultraviolet (UVB) irradiation+solvent application group (n=4). • Ultraviolet (UVB) irradiation+200 nM apocynin application group (n=4). • Ultraviolet (UVB) irradiation+200 μM apocynin application group (n=4). • Ultraviolet (UVB) irradiation+2 μM Y-27632 application group (n=4). • Ultraviolet (UVB) irradiation+20 μM Y-27632 application group (n=4) In the above solution application group, aqueous solutions of each preparation were applied to hairless mice on their back once a day for five days, starting from the day before ultraviolet irradiation. UVB irradiation was carried out using a Yayoi ultraviolet irradiation system (Y-UV-Lab-K-D5 lamp type) at an intensity of 150 mJ/cm^2 once a day. The stratum corneum water content and TEWL of the irradiated area were measured for each group of mice on the fourth day after the start of ultraviolet irradiation. The measurements were performed using Corneometer CM825 and Tewameter TN300 (Courage+Khazaka, Integral Corporation, Germany) at specific sites on the back of the mice.

[2] = tested on: skin damage induced by erlotinib; test: Improvement of skin damage caused by erlotinib administration, TEWL (Example 10); assay type: in vivo, C57BL6N mice; settings: 200 μM applied on the back once a day, five times a week; 7 weeks old or 6 months old mice; day 7 / day 12 (FIG. 19)
Protocol: Female […] mice (7 weeks old or 6 months old) were acclimatized to the experimental environment, and then hair was removed from their back under anesthesia. […] The control non-administered group received the 0.5% methylcellulose solution of the solvent in the same way. The control group applied with the solvent and the group applied with 200 μM apocynin received an aqueous solution of each preparation once a day, five times a week on the back. To the control solvent application group the solvent (50% ethanol/PBS) of apocynin was similarly applied.

[3] = tested on: upper cervical-dorsal skin of aged mice; test: Irritant skin disorder (dry eczema and alopecia) model induced by 100% ethanol in aged mice; assay type: in vivo; settings: continuously applied, aged mice (FIG. 20)
Source text: In the irritant skin disorder (dry eczema and alopecia) model induced by a high concentration of ethanol (100%) in the upper cervical-dorsal skin of aged mice, a substance (apocynin) that promotes the cell competitive ability of epidermal stem cells was continuously applied.

[4] = eighth day, surface of the back, compared to the solvent-applied control group

COc1cc(C(C)=O)ccc1O [Apocynin]
TEWL on the back ([1]; 200 μM apocynin, third day, compared to the solvent-applied control group (FIG. 28)): significantly lower | Ra (arithmetic mean roughness) [1, 4]: significantly reduced | Rz (ten-point average roughness) [1, 4]: significantly reduced | TEWL after ultraviolet irradiation (UVB-irradiated back skin; 200 µM administration group, UVB, fourth day (FIG. 21)): significantly lower | water content of the stratum corneum after ultraviolet irradiation (UVB-irradiated back skin; 200 μM applied, UVB 150 mJ/cm^2, fourth day (FIG. 21)): significantly higher | TEWL under erlotinib administration [2]: significantly decreased | skin damage [3]: significantly reduced
